For assay [1], the target named is T1, AAK1 (amino acids T27-A365) (Homo sapiens, UniProt Q2M2I8).
T1 construct: against AAK1 (amino acids T27-A365); 6His (N, cleaved yes)
As to the kind of experiment: AAK1 pSENs assay. It counts as biochemical. Particulars: read-out: AAK1 pSENs: EIC50. The method, boiled down: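 Biotinylated, tag-free AAK1 T27-A365 expressed in E. coli was held at 20 nM in enzyme solution (HEPES pH 7.5, 10 mM MgCl2, DTT, EGTA, Brij35, BSA) and preincubated with compound for 15 min at 25 °C. The reaction was started with an equal volume of substrate solution containing 30 uM AQT0759 peptide and 70 uM ATP. IC50 determined.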

Another assay has as its target AAK1 (Homo sapiens, UniProt Q2M2I8). Kind of assay: pAP2M1 cell-based assay (in-cell Western). As to conditions: Hela cells co-transfected with AP2M1 and AAK1, 3 hr treatment, read-out: AAK1 In-cell Western: IC50. The source says: pAP2M1 Cell-Based Assay (in-Cell Western):
The plate was read on Licor Odyssey CLx imaging system (LICOR) to acquire fluorescence intensity at 700 channel and 800 channel.
Data analysis: Fluorescence intensity at 700 channel served as internal standard and 800 channel were normalized with 700 channel.

Assay [2] has as its target T2, BIKE (amino acids S38-E345) (K320A, K321A) (Homo sapiens, UniProt Q9NSY1, K320A/K321A).
T2 construct: against BIKE (amino acids S38-E345) (K320A, K321A); 6His (N, cleaved yes)
As to the kind of experiment: BIKE pSENs assay. It counts as biochemical. Particulars: read-out: BIKE pSENs: IC50. The procedure, abridged:
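E. coli-expressed, biotinylated, tag-free BIKE at 20 nM in HEPES pH 7.5 buffer with 10 mM MgCl2 preincubated with compound 15 min at 25° C. Reaction started with 30 uM AQT0759 sensor peptide and 40 uM ATP (concentrations before 1:1 mixing).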

In assay [3] the target is T3, GAK (amino acids Q25-N335) (Homo sapiens, UniProt O14976).
T3 construct: against GAK (amino acids Q25-N335); 6His (N, cleaved yes)
T3 sequence (O14976 25-335): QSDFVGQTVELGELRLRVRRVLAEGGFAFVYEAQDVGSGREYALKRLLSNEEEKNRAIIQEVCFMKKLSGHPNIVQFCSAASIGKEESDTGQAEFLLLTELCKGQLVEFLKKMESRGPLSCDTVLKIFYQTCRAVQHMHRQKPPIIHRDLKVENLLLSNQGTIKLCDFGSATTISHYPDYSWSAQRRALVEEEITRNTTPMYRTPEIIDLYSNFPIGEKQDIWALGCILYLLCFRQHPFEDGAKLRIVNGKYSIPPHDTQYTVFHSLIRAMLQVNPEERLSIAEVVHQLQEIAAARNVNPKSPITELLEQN
Kind of assay: GAK pSENs assay. It counts as biochemical. Particulars: read-out: GAK pSENs:IC50. Here is the method:
The recombinant proteins were independently expressed in Escherichia coli BL21(DE3) cells cultured in Luria-Bertani (LB) medium until OD600 reached 0.6-0.8, then cooled to 15° C. and supplemented with 0.5 mM isopropyl 1-thio-D-galactopyranoside (IPTG) induce protein expression 16 h. Cells were harvested and resuspended in lysis buffer (50 mM HEPES pH 7.5, 500 mM NaCl, 5 mM imidazole, 5% glycerol, 0.5 mM Tris (2-carboxyethyl) phosphine (TCEP), cOmplete Protease Inhibitor Tablet (Roche)) and lysed by microfludics high pressure homogenizer (UH-06, Union-Biotech). Proteins were purified using […] chromatography (His FF column, Bestchrom) and eluted stepwise in binding buffer with 20-300 mM imidazole. Removal of the hexahistidine tag was performed at 4° C. overnight using recombinant TEV protease and reacted with BirA to obtain the corresponding biotinylated-AAK1, BIKE or GAK proteins. Further separated in the reverse Strep column (Strep-Tactin® XT, IBA). The Biotin elution sample was collected containing untagged biotinylated protein was then purified by Ion-exchange chromatography (Mono Q 10/100 GL, Cytiva) and Size-exclusion chromatography (HiLoad 16/600 Superdex 200 pg, Cytiva). The pure protein was stored in a storage buffer 50 mM HEPES (pH 7.5), 300 mM NaCl, 5% glycerol at −80° C. Protein were characterized by SDS-PAGE, LC-MS and aSEC.
This example describes one illustrative method for determining the IC50 of the compounds of the present invention against GAK (amino acids Q25-N335).

Like-named read-outs stand apart in the source and are kept apart here.

AAK1, sequence (Q2M2I8 whole entry): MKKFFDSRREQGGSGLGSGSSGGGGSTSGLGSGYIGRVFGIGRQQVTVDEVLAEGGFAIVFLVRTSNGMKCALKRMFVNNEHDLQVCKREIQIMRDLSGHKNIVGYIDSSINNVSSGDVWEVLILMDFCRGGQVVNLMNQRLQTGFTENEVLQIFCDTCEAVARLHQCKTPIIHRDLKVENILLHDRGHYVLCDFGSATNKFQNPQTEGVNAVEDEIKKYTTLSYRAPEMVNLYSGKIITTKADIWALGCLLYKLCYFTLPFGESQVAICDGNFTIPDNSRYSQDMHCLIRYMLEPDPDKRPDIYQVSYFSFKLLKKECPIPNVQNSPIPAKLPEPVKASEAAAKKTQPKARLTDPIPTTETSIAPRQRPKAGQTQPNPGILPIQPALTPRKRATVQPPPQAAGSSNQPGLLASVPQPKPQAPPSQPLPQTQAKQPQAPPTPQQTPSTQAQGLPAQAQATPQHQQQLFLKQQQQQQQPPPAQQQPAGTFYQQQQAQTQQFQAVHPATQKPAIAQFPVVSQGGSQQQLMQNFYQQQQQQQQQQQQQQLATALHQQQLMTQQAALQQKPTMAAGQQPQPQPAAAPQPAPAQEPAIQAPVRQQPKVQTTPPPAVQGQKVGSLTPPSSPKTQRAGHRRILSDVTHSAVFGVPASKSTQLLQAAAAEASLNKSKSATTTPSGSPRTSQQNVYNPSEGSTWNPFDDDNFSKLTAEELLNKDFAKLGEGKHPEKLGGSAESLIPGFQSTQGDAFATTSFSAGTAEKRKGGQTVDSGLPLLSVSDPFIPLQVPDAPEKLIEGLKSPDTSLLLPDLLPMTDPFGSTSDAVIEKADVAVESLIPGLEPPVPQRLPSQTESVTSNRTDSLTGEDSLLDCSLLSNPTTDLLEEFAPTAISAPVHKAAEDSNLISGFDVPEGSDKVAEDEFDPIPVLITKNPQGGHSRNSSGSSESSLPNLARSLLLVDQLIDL
T1 sequence (Q2M2I8 27-365): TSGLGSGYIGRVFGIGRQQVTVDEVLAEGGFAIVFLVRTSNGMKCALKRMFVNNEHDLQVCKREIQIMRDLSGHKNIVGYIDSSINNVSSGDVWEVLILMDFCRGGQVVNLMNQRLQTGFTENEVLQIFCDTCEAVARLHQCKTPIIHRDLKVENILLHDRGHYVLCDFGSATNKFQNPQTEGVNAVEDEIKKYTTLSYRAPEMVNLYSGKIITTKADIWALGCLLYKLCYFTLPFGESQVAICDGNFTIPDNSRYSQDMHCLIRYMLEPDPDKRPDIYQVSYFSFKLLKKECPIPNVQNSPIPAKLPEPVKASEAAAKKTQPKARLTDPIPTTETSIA
T2 sequence (Q9NSY1 38-345 K320A/K321A): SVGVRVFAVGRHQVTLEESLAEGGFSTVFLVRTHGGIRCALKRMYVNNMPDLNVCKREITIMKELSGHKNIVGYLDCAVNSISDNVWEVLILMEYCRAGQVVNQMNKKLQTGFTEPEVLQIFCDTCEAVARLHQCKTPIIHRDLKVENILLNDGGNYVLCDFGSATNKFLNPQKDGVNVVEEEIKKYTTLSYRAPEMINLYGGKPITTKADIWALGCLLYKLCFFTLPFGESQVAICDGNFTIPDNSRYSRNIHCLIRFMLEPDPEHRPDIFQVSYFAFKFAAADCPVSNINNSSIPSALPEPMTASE

On to `C#CC1(OC(=O)N2CCN(c3ccn4ncc(-c5cccnc5OC)c4n3)CC2)CCNC1` (stereo not shown) [Compound I-9, (3-Ethynylpyrrolidin-3-yl) 4-[3-(2-methoxy-3-pyridyl)pyrazolo[1,5-a]pyrimidin-5-yl]piperazine-1-carboxylate], for which the IC50 in assay [1] (class symbols) fell in the range of 1 to 50 nM; on AAK1 (class symbols) it was 51 to 150 nM; in assay [2] (class symbols), 1 to 50 nM; in assay [3] (class symbols), 151 to 500 nM.

On to `C[C@@]1(OC(=O)N2CCN(c3ccn4ncc(-c5cccnc5OC5CC5)c4n3)CC2)CCN(CC(N)=O)C1` [Compound I-51, (R)-1-(2-amino-2-oxoethyl)-3-(methylpyrrolidin-3-yl)-4-(3-(2-cyclopropoxypyridin-3-yl)pyrazolo[1,5-a]pyrimidin-5-yl)piperazine-1-carboxylate], for which the IC50 was in the range of 1 to 50 nM in assay [1] (class symbols), 151 to 500 nM on AAK1 (class symbols), 501 to 1500 nM in assay [2] (class symbols) and 501 to 1500 nM in assay [3] (class symbols).

With `COc1cnc(OC2CC2)c(-c2cnn3ccc(N4CCN(C(=O)O[C@H]5CC(=O)N(C)C5)CC4)nc23)c1` [Compound I-87], the IC50 was in the range of 1 to 50 nM in assay [1] (class symbols), 151 to 500 nM on AAK1 (class symbols), 51 to 150 nM in assay [2] (class symbols) and 501 to 1500 nM in assay [3] (class symbols).

Take `CN1C[C@@H](OC(=O)N2CCN(c3ccn4ncc(-c5cccnc5O)c4n3)CC2)CC1=O` [Compound I-98, [(3S)-1-methyl-5-oxo-pyrrolidin-3-yl]-4-[3-(2-hydroxy-3-pyridyl)pyrazolo[1,5-a]pyrimidin-5-yl]piperazine-1-carboxylate]: the IC50 in assay [1] (class symbols) is 151 to 500 nM; at AAK1 (class symbols), over 1500 nM; in assay [2] (class symbols) it was 501 to 1500 nM; in assay [3] (class symbols) it was over 1500 nM.

`C#C[C@@]1(OC(=O)N2CCN(c3ccn4ncc(-c5cccnc5OC5CC5)c4n3)CC2)CCNC1` [Compound I-16, [(3S)-3-Ethynylpyrrolidin-3-yl]-4-[3-[2-(cyclopropoxy)-3-pyridyl]pyrazolo[1,5-a]pyrimidin-5-yl]piperazine-1-carboxylate]: the IC50 in assay [1] (class symbols) lay in the range of 1 to 50 nM; at AAK1 (class symbols), 1 to 50 nM; in assay [2] (class symbols) it was 1 to 50 nM; in assay [3] (class symbols), 51 to 150 nM.

Turning to `CC1(OC(=O)N2CCN(c3ccn4ncc(-c5cccc(C(N)=O)c5)c4n3)CC2)COC1` [Compound I-4, (3-methyloxetan-3-yl)-4-[3-(3-carbamoylphenyl)pyrazolo[1,5-a]pyrimidin-5-yl]piperazine-1-carboxylate], the IC50 in assay [1] (class symbols) lay within 51 to 150 nM; on AAK1 (class symbols), 501 to 1500 nM; in assay [2] (class symbols), 501 to 1500 nM; in assay [3] (class symbols), 501 to 1500 nM.

Regarding `COc1ncccc1-c1cnn2ccc(NCCN(C)C(=O)O[C@H]3CO[C@H]4OCC[C@H]43)nc12` [Compound I-70, (3R,3aS,6aR)-hexahydrofuro[2,3-b]furan-3-yl (2-((3-(2-methoxypyridin-3-yl)pyrazolo[1,5-a]pyrimidin-5-yl)amino)ethyl)(methyl)carbamate], the IC50 in assay [1] (class symbols) fell in the range of 1 to 50 nM; on AAK1 (class symbols), 501 to 1500 nM; in assay [2] (class symbols) it was 51 to 150 nM; in assay [3] (class symbols), 501 to 1500 nM.

Turning to `CN(CCNc1ccn2ncc(-c3cccnc3OC3CC3)c2n1)C(=O)O[C@]1(C)CCNC1` [Compound I-61, (R)-3-methylpyrrolidin-3-yl (2-((3-(2-cyclopropoxypyridin-3-yl)pyrazolo[1,5-a]pyrimidin-5-yl)amino)ethyl)(methyl)carbamate], the IC50 lay in the range of 1 to 50 nM in assay [1] (class symbols), 501 to 1500 nM at AAK1 (class symbols), 51 to 150 nM in assay [2] (class symbols) and 151 to 500 nM in assay [3] (class symbols).

On to `CC(C)(C)OC(=O)N1CCN(c2ccn3ncc(-c4cccnc4O)c3n2)CC1` [Compound I-102, tert-butyl 4-[3-(2-hydroxy-3-pyridyl)pyrazolo[1,5-a]pyrimidin-5-yl]piperazine-1-carboxylate], for which the IC50 was 1 to 50 nM in assay [1] (class symbols), 501 to 1500 nM on AAK1 (class symbols), 51 to 150 nM in assay [2] (class symbols) and over 1500 nM in assay [3] (class symbols).

As to `CC(C)(C)OC(=O)NCCNc1ccc2ncc(-c3cccnc3OC3CC3)n2n1` [Compound I-129, tert-butyl N-[2-[[3-[2-(cyclopropoxy)-3-pyridyl]imidazo[1,2-b]pyridazin-6-yl]amino]ethyl]carbamate], the IC50 in assay [1] (class symbols) was 1 to 50 nM; at AAK1 (class symbols), 501 to 1500 nM; in assay [2] (class symbols), 51 to 150 nM; in assay [3] (class symbols) it was 151 to 500 nM.

`COc1ncccc1-c1cnn2ccc(N3CCN(C(=O)OC4(C)COC4)CC3)nc12` [RC-1, (3-methyloxetan-3-yl)-4-[3-(2-methoxy-3-pyridyl)pyrazolo[1,5-a]pyrimidin-5-yl]piperazine-1-carboxylate, reference compound]: the IC50 in assay [1] (numeric values) amounted to 8.68 nM; on AAK1 (numeric values) it was 157 nM; in assay [2] (numeric values) it was 84.6 nM; in assay [3] (numeric values), 1050 nM.

Take `CC(C)(C)OC(=O)N1CCN(c2ccn3ncc(Cl)c3n2)CC1` [Compound I-100, tert-butyl 4-(3-chloropyrazolo[1,5-a]pyrimidin-5-yl)piperazine-1-carboxylate]: the IC50 was 501 to 1500 nM in assay [1] (class symbols), over 1500 nM at AAK1 (class symbols), over 1500 nM in assay [2] (class symbols) and over 1500 nM in assay [3] (class symbols).

As to `CC(C)(C)OC(=O)NCCNc1nc2c(-c3cccnc3OC3CC3)cnn2cc1F` [Compound I-124, tert-butyl N-[2-[[3-[2-(cyclopropoxy)-3-pyridyl]-6-fluoro-pyrazolo[1,5-a]pyrimidin-5-yl]amino]ethyl]carbamate], the IC50 in assay [1] (class symbols) is 51 to 150 nM; at AAK1 (class symbols), 501 to 1500 nM; in assay [2] (class symbols) it was 501 to 1500 nM; in assay [3] (class symbols), 501 to 1500 nM.

As for `CN(CCNc1ccn2ncc(-c3cccnc3OC3CC3)c2n1)C(=O)O[C@H]1CO[C@H]2OCC[C@H]21` [Compound I-71, (3R,3aS,6aR)-hexahydrofuro[2,3-b]furan-3-yl (2-((3-(2-cyclopropoxypyridin-3-yl)pyrazolo[1,5-a]pyrimidin-5-yl)amino)ethyl)(methyl)carbamate], the IC50 fell in the range of 1 to 50 nM in assay [1] (class symbols), 501 to 1500 nM on AAK1 (class symbols), 501 to 1500 nM in assay [2] (class symbols) and 501 to 1500 nM in assay [3] (class symbols).

Regarding `CN1C[C@@H](OC(=O)N2CCN(c3ccn4ncc(-c5cc(OC(F)(F)F)cnc5OC5CC5)c4n3)CC2)CC1=O` [Compound I-88], the IC50 in assay [1] (class symbols) was 1 to 50 nM; on AAK1 (class symbols), over 1500 nM; in assay [2] (class symbols), 151 to 500 nM; in assay [3] (class symbols), 501 to 1500 nM.

Regarding `CC(C)(C)OC(=O)N1CCC(N2C[C@H](OC(=O)N3CCN(c4ccn5ncc(-c6cccnc6OC6CC6)c5n4)CC3)CC2=O)CC1` [Compound I-31, (R)-1-(1-(tert-Butoxycarbonyl)piperidin-4-yl)-5-oxopyrrolidin-3-yl 4-(3-(2-cyclopropoxypyridin-3-yl)pyrazolo[1,5-a]pyrimidin-5-yl)piperazine-1-carboxylate], the IC50 was 151 to 500 nM in assay [1] (class symbols), over 1500 nM on AAK1 (class symbols), 151 to 500 nM in assay [2] (class symbols) and 501 to 1500 nM in assay [3] (class symbols).

These data come from patent US20250122207A1, “AP2 ASSOCIATED KINASE 1 INHIBITORS AND USES THEREOF” (Satellos Bioscience Inc., priority 2023, published 2025).
